Read-outs that look alike come from different tables or passages of the source.
Key:
[1] = Plasma protein binding by equilibrium dialysis; type: in vitro ADME, human; conditions: for fraction unbound at 5 h, 10 µg mL^−1: human, pooled human plasma, pH 7.4, equilibrium dialysis 5 h
Description: Plasma protein binding was assessed by equilibrium dialysis in a 96-well dialysis block (HTDialysis, Ledyard, CT, USA). Dialysis membranes (12–14 kDa) were soaked in deionised water for at least 60 min. Membranes were soaked overnight at 4 °C in ethanol:water 20:80% v/v and then rinsed with deionised water immediately prior to use. […] Spiked plasma (150 µL) was dialysed against isotonic phosphate buffer (pH 7.4) (150 µL) for 5 h at 37 °C with shaking at 100 rpm. Thermal degradation controls for each test compound were kept at 37 °C and 4 °C. Blank control plasma and buffer were included in the incubation. Following incubation, dialysed plasma samples and thermal degradation controls (50 µL) were added to drug-free buffer (50 µL), and dialysed buffer samples (50 µL) were added to drug-free plasma (50 µL). […] Supernatant (150 µL) was added to 50 µL deionised water and samples were analysed by UPLC-MS/MS as described above. Dialysed buffer from each well was tested for protein contamination using BCA protein assay reagent to determine whether membranes had been compromised.
Bu = Analyte/IS ratio determined in buffer side (2) Fraction unbound, fu=(100−% bound)/100

[2] = Metabolic stability, pooled human liver microsome incubations; conditions: for Predicted In Vivo Hepatic Clearance, CLH: from pHLM CLint, well-stirred model with plasma fu, Q 21 mL min^−1 kg^−1; for CLint scaled at 0.5 µM / half-life at 0.5 µM: human, microsomes; for CLint scaled at 0.5 µM: pH 7.4, Intrinsic clearance; for half-life at 0.5 µM: pH 7.4, T1/2 (min), pHLM 0.5 mg mL^−1, 0.5 µM, NADPH, 37 °C; for half-life at 0.5 µM / Microsomal Intrinsic Clearance, CLint micr: n ≥ 3 ± SD
[3] = Short-term plasma stability with and without esterase inhibitors; conditions: human, pH 7.4, Parent Compound Remaining (%), 3 h, 37 °C
[4] = Metabolic stability, pooled human cryopreserved hepatocyte incubations; conditions: human, hepatocytes; for CLint scaled at 0.5 µM: Intrinsic clearance, pHHeps, alternative hepatocyte cell density 99x10^6 hepatocytes per gram liver; for half-life at 0.5 µM: T1/2 (min), pHHeps 0.25 million cells mL^−1, 0.5 µM, 37 °C, n ≥ 3 ± SD
[5] = test system: pooled human cryopreserved hepatocytes (pHHeps); assay: as above; conditions: for Predicted In Vivo Hepatic Clearance, CLH: from pHHeps CLint, well-stirred model with plasma fu, Q 21 mL min^−1 kg^−1
[6] = 37 °C, 10 µg mL^−1, read-out: PPB (%) (converted)
[7] = 37 °C, plasma, read-out: Fraction Unbound (fu)
[8] = pHLM, alternative microsomal scaling factor 32 mg microsomal protein per gram liver
[9] = pHLM, alternative microsomal scaling factor 45 mg microsomal protein per gram liver
[10] = pHLM, scaling factor 32 mg microsomal protein per gram liver
[11] = pHLM, scaling factor 45 mg microsomal protein per gram liver
[12] = Esterase Inhibitors, pH 7.4, BNPP and PMSF 500 µM each
[13] = plasma, No Esterase Inhibitors, pH 7.4, pooled human plasma
[14] = pHHeps, 99x10^6 hepatocytes per gram liver

| SMILES | fraction unbound at 5 h, 10 µg mL^−1 [1, 7] | CLint scaled at 0.5 µM [2, 8] | CLint scaled at 0.5 µM [2, 9] | half-life at 0.5 µM [2] | % parent compound remaining, Average ([2]; pHLM, 3 min) | % parent compound remaining, Average ([2]; pHLM, 6 min) | % parent compound remaining, Average ([2]; pHLM, 9 min) | % parent compound remaining, Average ([2]; pHLM, 15 min) | % parent compound remaining, Average ([2]; pHLM, 30 min) | Microsomal Intrinsic Clearance, CLint micr ([2]; pHLM) | remaining at 3 h, 5 µM [3, 12] | remaining at 3 h, 5 µM [3, 13] | CLint scaled at 0.5 µM [4] | half-life at 0.5 µM [4] | % parent compound remaining, Average ([5]; pHHeps, 3 min) | % parent compound remaining, Average ([5]; pHHeps, 6 min) | % parent compound remaining, Average ([5]; pHHeps, 9 min) | % parent compound remaining, Average ([5]; pHHeps, 15 min) | % parent compound remaining, Average ([5]; pHHeps, 30 min) | % parent compound remaining, Average ([5]; pHHeps, 45 min) | further results |
| --- | --- | --- | --- | --- | --- | --- | --- | --- | --- | --- | --- | --- | --- | --- | --- | --- | --- | --- | --- | --- | --- |
| C=CCCCn1cc(C(=O)N[C@@H](C(=O)OC)C(C)C)c2ccccc21 [(R)-AMB-4en-PICA (7), methyl 3-methyl-2-[(1-pent-4-enylindole-3-carbonyl)amino] butanoate] | 0.059 ± 0.001 | 17.2 L/h/kg | 24.1 L/h/kg | 4.1 ± 0.75 min | 56.4% | 36.2% | 22.6% | 9.6% | 1.6% | 0.348 ± 0.068 mL min^−1 mg Microsomal Protein^−1 | 95.5 ± 2.9% | 91.7 ± 1.9% | 88.2 L/h/kg | 5.5 ± 2.1 min | 57.7% | 46.1% | 25.6% | 13.7% | 4.6% | 1.6% | recovery (total peak area in dialysed samples vs 4 °C samples) ([1]; PPB thermal stability control, 5 h): 95 ± 2.0%; fraction unbound at 5 h, 10 µg mL^−1 [1, 6]: 0.059; Predicted In Vivo Hepatic Clearance, CLH [2]: 0.708 ± 0.0582 L/h/kg; Hepatic extraction ratio, EH ([2]; from pHLM incubations): 0.56 ± 0.046; Hepatic extraction ratio, EH [2, 10]: 0.44 ± 0.047; Predicted in vivo hepatic clearance, CLH [2, 10]: 0.557 L/h/kg; Predicted in vivo hepatic clearance, CLH [2, 11]: 0.663 L/h/kg; Predicted In Vivo Hepatic Clearance, CLH [5]: 1.007 ± 0.0798 L/h/kg; Hepatic extraction ratio, EH ([5]; from pHHeps incubations): 0.80 ± 0.063; Hepatic extraction ratio, EH [5, 14]: 0.79 ± 0.066; Predicted in vivo hepatic clearance, CLH [5, 14]: 0.9918 ± 0.0834 L/h/kg; % parent compound remaining, Average ([5]; pHHeps, 60 min): 0.6% |
| C=CCCCn1nc(C(=O)N[C@@H](C(=O)OC)C(C)(C)C)c2ccccc21 [(R)-MDMB-4en-PINACA (5), methyl 3,3-dimethyl-2-[1-(pent-4-en-1-yl)-1H-indazole-3-carboxamido] butanoate] | 0.019 ± 0.0071 | 12.5 L/h/kg | 17.5 L/h/kg | 5.5 ± 0.59 min | 68.4% | 48.2% | 32.3% | 14.6% | 2.5% | 0.253 ± 0.026 mL min^−1 mg Microsomal Protein^−1 | 89.4 ± 3.4% | 87.2 ± 6.9% | 20.1 ± 3.7 L/h/kg | 22 ± 3.6 min | 80.8% | 77.7% | 70.3% | 58.1% | 38.0% | 26.6% | fraction unbound at 5 h, 10 µg mL^−1 [1, 6]: 0.019; Predicted In Vivo Hepatic Clearance, CLH [2]: 0.296 ± 0.0234 L/h/kg; Hepatic extraction ratio, EH ([2]; from pHLM incubations): 0.24 ± 0.019; Hepatic extraction ratio, EH [2, 10]: 0.16 ± 0.014; Predicted in vivo hepatic clearance, CLH [2, 10]: 0.199 L/h/kg; Hepatic extraction ratio, EH [2, 11]: 0.21 ± 0.017; Predicted in vivo hepatic clearance, CLH [2, 11]: 0.263 ± 0.0216 L/h/kg; Predicted In Vivo Hepatic Clearance, CLH [5]: 0.31 ± 0.042 L/h/kg; Hepatic extraction ratio, EH ([5]; from pHHeps incubations): 0.25 ± 0.033; Hepatic extraction ratio, EH [5, 14]: 0.23 ± 0.032; Predicted in vivo hepatic clearance, CLH [5, 14]: 0.292 ± 0.0402 L/h/kg; % parent compound remaining, Average ([5]; pHHeps, 60 min): 20.8% |
| COC(=O)[C@H](NC(=O)c1nn(Cc2ccc(F)cc2)c2ccccc12)C(C)(C)C [(R)-MDMB-FUBINACA (6)] |  | 3.49 L/h/kg | 4.91 ± 0.63 L/h/kg | 20 ± 2.5 min | 77.3% | 75.0% | 70.2% | 57.2% | 33.3% | 0.071 ± 0.009 mL min^−1 mg Microsomal Protein^−1 |  |  | 13.3 L/h/kg | 32 ± 5.4 min | 93.0% | 82.9% | 77.6% | 70.2% | 53.1% | 57.7% | % parent compound remaining, Average ([5]; pHHeps, 60 min): 41.1% |
| COC(=O)[C@@H](NC(=O)c1nn(CCCCF)c2ccccc12)C(C)(C)C [(S)-4F-MDMB-BINACA (4), methyl 2-[1-(4-fluorobutyl)-1H-indazole-3-carboxamido]-3,3-dimethylbutanoate] | 0.061 ± 0.0028 | 7.08 L/h/kg | 9.9 L/h/kg | 9.9 ± 1.9 min | 74.9% | 63.6% | 50.4% | 32.7% | 17.0% | 0.143 ± 0.025 mL min^−1 mg Microsomal Protein^−1 | 96 ± 2.9% | 93.1 ± 5.1% |  |  | 82.3% | 73.7% | 69.2% | 53.9% | 25.8% | 12.5% | PPB (%) ([1]; equilibrium dialysis 5 h, 37 °C, 10 µg mL^−1): 93.9 ± 0.28%; Predicted In Vivo Hepatic Clearance, CLH [2]: 0.451 ± 0.0528 L/h/kg; Hepatic extraction ratio, EH ([2]; from pHLM incubations): 0.36 ± 0.042; Hepatic extraction ratio, EH [2, 10]: 0.25 ± 0.034; Predicted in vivo hepatic clearance, CLH [2, 10]: 0.32 L/h/kg; Predicted in vivo hepatic clearance, CLH [2, 11]: 0.407 L/h/kg; Predicted In Vivo Hepatic Clearance, CLH [5]: 0.7248 ± 0.0138 L/h/kg; Hepatic extraction ratio, EH ([5]; from pHHeps incubations): 0.58 ± 0.011; T1/2 ([5]; pHHeps 0.25 million cells mL^−1, 0.5 µM, 37 °C, n ≥ 3 ± SD): 16 ± 0.74 min; Hepatic extraction ratio, EH [5, 14]: 0.56 ± 0.011; Predicted in vivo hepatic clearance, CLH [5, 14]: 0.7008 ± 0.0144 L/h/kg; % parent compound remaining, Average ([5]; pHHeps, 60 min): 6.2%; Intrinsic clearance, CLint ([5]; pHHeps, alternative hepatocyte cell density 99x10^6 hepatocytes per gram liver): 25.9 ± 1.2 L/h/kg |
| CC(C)[C@H](NC(=O)c1nn(CC2CCCCC2)c2ccccc12)C(N)=O [(S)-AB-[…] (11), N-[1-amino-3-methyl-1-oxobutan-2-yl]-1-(cyclohexylmethyl)-1H-indazole-3-carboxamide] | 0.028 ± 0.0219 | 2.53 L/h/kg | 3.55 L/h/kg | 27 ± 2.9 min |  |  |  |  |  |  | 97.9 ± 7% | 98.2 ± 7.2% | 11.6 L/h/kg | 39 ± 8.8 min |  |  |  |  |  |  | fraction unbound at 5 h, 10 µg mL^−1 [1, 6]: 0.028 |

— publication PMC7961380, “A Systematic Study of the In Vitro Pharmacokinetics and Estimated Human In Vivo Clearance of Indole and Indazole-3-Carboxamide Synthetic Cannabinoid Receptor Agonists Detected on the Illicit Drug Market” (Molecules, 2021)
